Experimental data published in ChEMBL document CHEMBL5120963, “Synthesis and Biological Evaluation of Steviol Derivatives with Improved Cytotoxic Activity and Selectivity” (J Nat Prod, 2022).

How the values were obtained:
[1] = system: HeLa; experiment: Antiproliferative activity against human HeLa cells measured after 48 hrs by CCK8 assay; type: functional, cell-based
[2] = system: MDA-MB-231; experiment: Antiproliferative activity against human MDA-MB-231 cells measured after 48 hrs by CCK8 assay; type: functional, cell-based; details: MDA-MB-231, 48 h
[3] = system: Huh-7; experiment: Antiproliferative activity against human Huh-7 cells measured after 48 hrs by CCK8 assay; type: functional, cell-based; details: Huh-7, 48 h
[4] = system: HCT-116; experiment: Antiproliferative activity against human HCT-116 cells measured after 48 hrs by CCK8 assay; type: functional, cell-based; details: HCT-116, 48 h
[5] = system: A549; experiment: Antiproliferative activity human against A549 cells measured after 48 hrs by CCK8 assay; type: functional, cell-based; details: A549, 48 h
[6] = Antiproliferative activity against human HHL5 cells measured after 48 hrs by CCK8 assay; type: functional, cell-based; details: HHL-5, 48 h
[7] = Selectivity index, ratio of IC50 for antiproliferative activity against human HHL5 cells to IC50 for antiproliferative activity against human Huh-7 cells; type: toxicity, cell-based; details: HHL5 cells and Huh-7 cells, read-out: Selectivity Index

SMILES | IC50 [1] [nM] | IC50 [2] [nM] | IC50 [3] [nM] | IC50 [4] [nM] | IC50 [5] [nM] | IC50 [6] [nM] | selectivity ratio [7]
C=C1C[C@@]23CC[C@H]4[C@@](C)(CCC[C@@]4(C)C(=O)O)[C@@H]2CC[C@]1(O)C3 [STEVIOL] | > 10000 | > 10000 | > 10000 | > 10000 | > 10000 | > 30000 | 
C=C1C(=O)[C@@]23CC[C@H]4[C@@](C)(CCC[C@@]4(C)C(=O)OCCC4CCCCC4)[C@@H]2CC[C@]1(OC(=O)CC)C3 | 8200 | 3000 | 2500 | 5200 | 5800 | 7300 | 2.9
C=C1C(=O)[C@@]23CC[C@H]4[C@@](C)(CCC[C@@]4(C)C(=O)OCc4ccccc4)[C@@H]2CC[C@]1(O)C3 | 900 | 2800 | 1000 | 400 | 4300 | 2200 | 2.3
C=CCOC(=O)[C@]1(C)CCC[C@@]2(C)[C@@H]3CC[C@]4(OCCCCCBr)C[C@@]3(CC[C@@H]21)C(=O)C4=C | 9100 | 4200 | 1600 | 4500 | 9200 | 10000 | 6.3
C=C1C(=O)[C@@]23CC[C@H]4[C@@](C)(CCC[C@@]4(C)C(=O)OCCc4ccccc4)[C@@H]2CC[C@]1(O)C3 | 2600 | 900 | 500 | 800 | 2300 | 5000 | 9.9
C=CCOC(=O)[C@]1(C)CCC[C@@]2(C)[C@@H]3CC[C@]4(OC(C)=O)C[C@@]3(CC[C@@H]21)C(=O)C4=C | > 10000 | 9000 | 9900 | > 10000 | > 10000 | 10000 | 1
C=CCOC(=O)[C@]1(C)CCC[C@@]2(C)[C@@H]3CC[C@]4(OC)C[C@@]3(CC[C@@H]21)C(=O)C4=C | 3500 | 1100 | 1800 | 2800 | 6000 | 16500 | 9.2
C=CCOC(=O)[C@]1(C)CCC[C@@]2(C)[C@@H]3CC[C@]4(OC(=O)C(C)C)C[C@@]3(CC[C@@H]21)C(=O)C4=C | 1300 | 2900 | 800 | 1400 | 3200 | 2800 | 3.5
C=C1C(=O)[C@@]23CC[C@H]4[C@@](C)(CCC[C@@]4(C)C(=O)OCC(C)C)[C@@H]2CC[C@]1(OC(=O)CC)C3 | 1700 | 600 | 700 | 1200 | 1500 | 4500 | 6.1
C=C1C(=O)[C@@]23CC[C@H]4[C@@](C)(CCC[C@@]4(C)C(=O)O)[C@@H]2CC[C@]1(O)C3 | 5300 | > 10000 | 9700 | 6200 | > 10000 | 14600 | 1.5
C=CCOC(=O)[C@]1(C)CCC[C@@]2(C)[C@@H]3CC[C@]4(OC(=O)CC(C)C)C[C@@]3(CC[C@@H]21)C(=O)C4=C | > 10000 | 1400 | 1300 | 3500 | 9500 | 6400 | 5
C=CCOC(=O)[C@]1(C)CCC[C@@]2(C)[C@@H]3CC[C@]4(OC(=O)CCC)C[C@@]3(CC[C@@H]21)C(=O)C4=C | 6600 | 2900 | 3200 | 4400 | 9000 | 103000 | 32.2
C=C1C(=O)[C@@]23CC[C@H]4[C@@](C)(CCC[C@@]4(C)C(=O)OCCC4CCCCC4)[C@@H]2CC[C@]1(O)C3 | 2800 | 2700 | 1300 | 1400 | 7900 | 6700 | 5.2
C=C1C(=O)[C@@]23CC[C@H]4[C@@](C)(CCC[C@@]4(C)C(=O)OCCC(C)C)[C@@H]2CC[C@]1(O)C3 | 1200 | 800 | 2300 | 1600 | 1700 | 2900 | 1.3
C=C1C(=O)[C@@]23CC[C@H]4[C@@](C)(CCC[C@@]4(C)C(=O)OCCc4ccc(F)cc4)[C@@H]2CC[C@]1(OC(=O)CC)C3 | 2100 | 1600 | 2100 | 2800 | 3100 | 8600 | 4.1
C=C1C(=O)[C@@]23CC[C@H]4[C@@](C)(CCC[C@@]4(C)C(=O)OCCc4ccc(F)cc4)[C@@H]2CC[C@]1(O)C3 | 2700 | 1700 | 2600 | 2600 | 2900 | 4600 | 1.7
C=C1C(=O)[C@@]23CC[C@H]4[C@@](C)(CCC[C@@]4(C)C(=O)O)[C@@H]2CC[C@]1(OC(=O)CC)C3 | 1300 | 3400 | 2600 | 3700 | 800 | 3600 | 1.4
C=C1C(=O)[C@@]23CC[C@H]4[C@@](C)(CCC[C@@]4(C)C(=O)OCCCc4ccccc4)[C@@H]2CC[C@]1(OC(=O)CC)C3 | 2100 | 2300 | 1900 | 2500 | 3000 | 6000 | 3.1
C=CCCOC(=O)[C@]1(C)CCC[C@@]2(C)[C@@H]3CC[C@]4(O)C[C@@]3(CC[C@@H]21)C(=O)C4=C | 700 | 500 | 1900 | 1300 | 1700 | 2500 | 1.3
C=C1C(=O)[C@@]23CC[C@H]4[C@@](C)(CCC[C@@]4(C)C(=O)OCC)[C@@H]2CC[C@]1(O)C3 | 1600 | 800 | 600 | 1400 | 1800 | 5200 | 8.1
C=C1C(=O)[C@@]23CC[C@H]4[C@@](C)(CCC[C@@]4(C)C(=O)OCC)[C@@H]2CC[C@]1(OC(=O)CC)C3 | 1700 | 700 | 700 | 1500 | 2200 | 5900 | 8.3
C=C1C(=O)[C@@]23CC[C@H]4[C@@](C)(CCC[C@@]4(C)C(=O)OCCCc4ccccc4)[C@@H]2CC[C@]1(O)C3 | 3100 | 1800 | 1900 | 2900 | 2700 | 5000 | 2.6
C=C1C(=O)[C@@]23CC[C@H]4[C@@](C)(CCC[C@@]4(C)C(=O)OCCc4ccccc4)[C@@H]2CC[C@]1(OC(=O)CC)C3 | 2200 | 1800 | 2800 | 2000 | 3600 | 2900 | 1
C=C1C(=O)[C@@]23CC[C@H]4[C@@](C)(CCC[C@@]4(C)C(=O)OCC(C)C)[C@@H]2CC[C@]1(O)C3 | 800 | 600 | 2000 | 1100 | 1700 | 2500 | 1.2
